We go through three compounds from article PMC9029893 (International Journal of Molecular Sciences, 2022).

The target of data set [1] is T1, factor X (Homo sapiens, UniProt P00742).
T1 construct: 50 µL of four-fold diluted PPP, 50 μL of deficient plasma factor X, 10 μL of the examined compound; from tissue; host or cells: platelet-poor plasma (PPP), mixed with factor X-depleted plasma (Bio-Ksel)
The data set can be described thus: Factor X activity. Format: biochemical. The protocol: The activity of FX was measured optically using deficient plasma factor X [75]. The content of each sample was as follows: 50 µL of four-fold diluted PPP, 50 μL of deficient plasma factor X, 10 μL of the examined compound, and 100 µL PT reagent. The control samples contained 10 μL of distilled water and methanol (1:1). The measurement of PT time was recorded using a CoagChrom-3003 coagulometer (Bio-Ksel, Grudziadz, Poland). The activity of factor X was counted using a calibration curve (R^2 = 0.999) performed on a calibrator diluted in the range 1:5–1:80 [76]. The variation in plasma coagulation time is proportional to the concentration and activity of factor X in the patient plasma treated with the tested compounds. The coefficient of variability for the method was calculated as CV = 1.80%. The reference values for factor X activity ranged from 77–131%.

The nature of data set [2]: WST-1 cell viability assay, HUVEC. As to conditions: human, HUVEC cells.
Protocol: (§1) HUVEC and AoSMC viability were tested using the WST-1 cell viability assay (Takara Bio Europe, Saint-Germain-en-Laye, France). […] Briefly, HUVEC and AoSMC were seeded at densities of 7500 and 5000 cells per well on 96-well plates. The cells were cultivated for up to 24 h to achieve 70% confluency, and subsequently treated with tested compounds diluted in medium (1 + 9; v = 100 μL) or pure medium (control). The plates were incubated at 37 °C (5% CO2) for the next 24 h. Then, the cells were rinsed with 100 μL culture medium, and WST-1 reagent diluted in medium (100 μL) was added; the plates were then incubated again (37 °C, 5% CO2) for another 90 min. The absorbance was measured at 450 nm (iMARK, Bio-Rad, Hercules, CA, USA). The experiments were performed in multiplicate (n = 8) and the results were presented as mean ± SD. The cell viability was expressed as a percentage of the control samples, which constituted 100% viability. […] The variability coefficient of the method was estimated (CV(HUVEC) = 8.94%, n = 8; CV(AoSMC) = 5.84%, n = 10).
Data set [3] relates to HUVEC cells. Description: WST-1 cell viability assay, HUVEC. Conditions: for Decrease of HUVECs viability (growth inhibition): 0.3 mM, vs control; for IC50: Homo sapiens, HUVEC, 24 h, read-out: Viability-IC50, HUVEC cells.
Protocol: as §1
Data set [4] can be described thus: WST-1 cell viability assay, AoSMC. Conditions: human, AoSMC cells.
Protocol: as §1
In data set [5] the test system is AoSMC cells. Description: WST-1 cell viability assay, AoSMC. As to conditions: Homo sapiens, 24 h, read-out: Viability-IC50, AoSMC cells.
Protocol: as §1

T1 sequence (P00742 41-488): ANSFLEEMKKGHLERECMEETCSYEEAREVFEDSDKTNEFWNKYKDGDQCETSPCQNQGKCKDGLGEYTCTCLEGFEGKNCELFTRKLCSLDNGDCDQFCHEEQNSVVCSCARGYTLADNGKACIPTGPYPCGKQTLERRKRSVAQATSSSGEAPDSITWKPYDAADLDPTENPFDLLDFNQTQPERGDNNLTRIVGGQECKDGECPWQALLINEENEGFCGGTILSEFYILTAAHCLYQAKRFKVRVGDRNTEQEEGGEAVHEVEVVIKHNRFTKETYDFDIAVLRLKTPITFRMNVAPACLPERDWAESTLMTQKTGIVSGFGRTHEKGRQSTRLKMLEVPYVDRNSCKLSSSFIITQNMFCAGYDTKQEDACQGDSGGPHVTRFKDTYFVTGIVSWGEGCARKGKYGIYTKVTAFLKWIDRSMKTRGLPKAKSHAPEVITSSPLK

For `CCCCS(=O)(=O)NC(N)=NC(=N)N(C)C` [Compound 1], the “Factor X activity” value in data set [1] (0.3 mM) was found to be 107.60 ± 4.62%. The “Factor X activity” value in data set [1] (0.6 mM) amounted to 104.20 ± 4.97%. Besides, the “Factor X activity” value in data set [1] (1.5 mM) was 97.40 ± 8.05%. In data set [2], this compound came in with a viability at 24 h, 0.06 mM of 76.3 ± 9.19% and a viability at 24 h, 0.3 mM of 71 ± 8.45%. Moreover, in data set [3], the “Decrease of HUVECs viability (growth inhibition)” value is recorded as “approximately 28.96%” and the IC50 turned out to be 3.64 ± 0.26 mM. In addition, the viability at 24 h, 3 mM in data set [4] is greater than 59%.
For the compound `CN(C)C(=N)N=C(N)NS(=O)(=O)C1CCCCC1` [Compound 3], the entries for the “Factor X activity” value in data set [1] (0.3 mM), in data set [1] (0.6 mM) and in data set [1] (1.5 mM) were 105.60 ± 2.30%, 103.40 ± 7.23% and 104.20 ± 8.14%, respectively. Moreover, the “Decrease of HUVECs viability (growth inhibition)” value in data set [3] was roughly 24.15%. Further, the concentration for half-maximal inhibition (IC50) in data set [3] was determined as 3.51 ± 0.24 mM. This compound gave a viability at 24 h, 3 mM in data set [4] greater than 76%.
Turning to `CCCCCCCCS(=O)(=O)NC(N)=NC(=N)N(C)C` [Compound 2], the “Factor X activity” value in data set [1] (0.3 mM) is reported as 107.40 ± 6.19%. In addition, the “Factor X activity” value in data set [1] (0.6 mM) stood at 104.00 ± 5.34%. Moreover, in data set [1] (1.5 mM), the “Factor X activity” value is recorded as 107.00 ± 4.00%. Also, in data set [2], the viability at 24 h, 0.06 mM is 75.9 ± 5.85%; the viability at 24 h, 0.3 mM is 71.5 ± 3.12%; the viability at 24 h, 3 mM came to 41.5%; the viability at 24 h, 5 mM is 32.1%. Moreover, the IC50 in data set [5] was 3.71 ± 0.54 mM.
